Assay in all cases: NCI tumour cell line growth inhibition, 48 h
Assay [1] has as its system HOP-62.
For assay [2], the system named is OVCAR-8.
Assay [3] concerns HOP-92.
In assay [4] the test system is SNB-75.
Assay [5] concerns SK-OV-3.
For assay [6], the system named is SK-MEL-2.
Assay [7] deals with NCI-H23.
Assay [8] deals with Malme-3M.
Assay [9] relates to DU-145.
In assay [10] the test system is EKVX.
For assay [11], the system named is UACC-257.
The test system of assay [12] is IGROV-1.
In assay [13] the test system is SF-539.
Assay [14] has as its system HT-29.
Assay [15] relates to HCT-15.
The test system of assay [16] is SF-268.
The test system of assay [17] is CCRF-CEM.
Assay [18] concerns OVCAR-3.
Assay [19] has as its system SR.
For assay [20], the system named is SW-620.

SMILES strings stand for the structures.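 Growth conditions: 96-well plates. Treatment: test compound, 48 hours, 5 concentrations. Analysis: linear interpolation between bracketing concentrations; unreached endpoints set to highest concentration. GI50 marks 50% less growth.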 Active and inactive are the calls of the source. Rule as the data show it: active = GI50 up to about 1.1 µM and inactive = higher. A value given as a limit tells only on which side of the number the result lay.

`Cc1ccc2cccc(OC(=O)c3cc4c(cc3Cl)Sc3nccn3S4(=O)=O)c2n1`: the GI50 in assay [1] is 0.661 µM (active); in assay [2] it was 4.71 µM (inactive); in assay [3] it was 14.6 µM (inactive); in [4], 9.66 µM (inactive); in [5], 22.8 µM (inactive); in assay [6], 11.5 µM (inactive). Further, the GI50 in [7] was 16.3 µM (inactive); in [8], 17.5 µM (inactive); in [9], 5.83 µM (inactive); in [10], 16.7 µM (inactive); in assay [11], 12.2 µM (inactive); in [12], 6.37 µM (inactive). In addition, the GI50 in assay [13] was 5.61 µM (inactive); in [14], 10 µM (inactive); in [15], 5.26 µM; in assay [16], 6.98 µM (inactive); in assay [17], 2.5 µM (inactive); in [18], 2.75 µM (inactive). The results for the GI50 in assay [19] and in assay [20] were 3.75 µM (inactive) and 9.71 µM (inactive), respectively.
On to `CCn1ncc(Oc2c(Cl)cc(N)cc2Cl)c(Cl)c1=O`, for which the GI50 in [1] is 44.9 µM (inactive); in [2], 56.5 µM (inactive); in [3] it was 73.6 µM (inactive); in [4] it was 51.5 µM (inactive); in assay [5], 31.3 µM (inactive); in [6], 34.6 µM (inactive). For the same compound, the GI50 in assay [7] was 30.5 µM (inactive); in [8], 32.9 µM (inactive); in [9], 60.8 µM (inactive); in [10], 34.9 µM (inactive); in assay [11], 31.6 µM (inactive); in assay [12], 42.3 µM (inactive). In addition, the GI50 in assay [13] is 31.6 µM (inactive); in [14], 25.3 µM (inactive); in [15], 27.8 µM; in assay [16] it was 31 µM (inactive); in assay [17] it was 83 µM (inactive); in assay [18], 17.2 µM (inactive). Moreover, the GI50 in assay [19] is 21.5 µM (inactive); in [20], 37.2 µM (inactive).
As to `CN(C)/C=N\c1cccc2c1NSN2`, the GI50 in [1], in assay [2], in assay [3], in assay [4], in assay [5] and in assay [6] was > 100 µM (inactive) throughout. The GI50 in assay [7], in assay [8], in assay [9], in [10], in assay [11] and in assay [12] was > 100 µM (inactive) throughout. For the same compound, the GI50 in [13] is > 100 µM (inactive); in assay [14] it was > 100 µM (inactive); in assay [15], greater than 100 µM; in assay [16] it was > 100 µM (inactive); in assay [17] it was > 100 µM (inactive); in [18] it was > 100 µM (inactive). Moreover, the GI50 in assay [19] and in assay [20] was > 100 µM (inactive) in each case.
As for `C#CC1(OC(C)=O)CCC2C3CC=C4C=C(OC(C)=O)CCC4(C)C3CCC21C` (stereo not given), the GI50 is 44.9 µM (inactive) in assay [1]; 19.1 µM (inactive) in assay [2]; 16.1 µM (inactive) in assay [3]; 28.1 µM (inactive) in [4]; 36.2 µM (inactive) in [5]; 19.7 µM (inactive) in [6]. Further, the GI50 is 18.3 µM (inactive) in [7]; 18 µM (inactive) in [8]; 31.1 µM (inactive) in [9]; 30.5 µM (inactive) in assay [10]; 17.4 µM (inactive) in [11]; 19.3 µM (inactive) in assay [12]. Moreover, the GI50 was 21.3 µM (inactive) in assay [13]; 17.2 µM (inactive) in assay [14]; 23.3 µM in [15]; 23.8 µM (inactive) in assay [16]; 12.6 µM (inactive) in assay [17]; 20 µM (inactive) in assay [18]. Moreover, the GI50 is 16.3 µM (inactive) in [19] and 23.4 µM (inactive) in [20].
In the case of `N#C/C(=C/n1c(=S)[nH]c2ccccc21)C(N)=O`, the GI50 was > 100 µM (inactive) in [1]; > 100 µM (inactive) in assay [2]; 11 µM (inactive) in assay [3]; > 100 µM (inactive) in [4]; > 100 µM (inactive) in [5]; > 100 µM (inactive) in assay [6]. Also, the GI50 in assay [7], in [8], in assay [9], in assay [10], in assay [11] and in assay [12] was > 100 µM (inactive) throughout. For the same compound, the GI50 was > 100 µM (inactive) in assay [13]; > 100 µM (inactive) in [14]; greater than 100 µM in assay [15]; > 100 µM (inactive) in assay [16]; > 100 µM (inactive) in assay [17]; > 100 µM (inactive) in assay [18]. In addition, the GI50 in assay [19] and in assay [20] was > 100 µM (inactive) throughout.
Turning to `CCOC(=O)c1cccc(/N=N/c2nc[nH]c2/C=C/C(=O)OC)c1`, the GI50 in [1] is 6.35 µM (inactive); in assay [2], 16.5 µM (inactive); in [3], 45.1 µM (inactive); in assay [4], 18.5 µM (inactive); in assay [5], 44.8 µM (inactive); in assay [6], 23.7 µM (inactive). The GI50 in assay [7] is 36.3 µM (inactive); in assay [8] it was 8.71 µM (inactive); in assay [9], 37.4 µM (inactive); in [10], 26.5 µM (inactive); in [11] it was 12.9 µM (inactive); in [12], 7.53 µM (inactive). The GI50 in [13] was 7.14 µM (inactive); in [14], 6.98 µM (inactive); in assay [15] it was 5.13 µM; in assay [16], 8.79 µM (inactive); in assay [17] it was 3.95 µM (inactive); in assay [18] it was 3.15 µM (inactive). For the same compound, the GI50 in assay [19] was 2.11 µM (inactive); in assay [20] it was 6.47 µM (inactive).
With `Nc1nc2c(ncn2C2C=CC(COS(N)(=O)=O)C2)c(=O)[nH]1` (stereo not given), the GI50 in assay [1], in assay [2], in [3], in [4], in assay [5] and in [6] was > 100 µM (inactive) in each case. Moreover, the GI50 in assay [7], in [8], in assay [9], in assay [10], in assay [11] and in assay [12] was > 100 µM (inactive) each time. Further, the GI50 in [13] is > 100 µM (inactive); in assay [14], > 100 µM (inactive); in [15], greater than 100 µM; in assay [16], > 100 µM (inactive); in assay [17], > 100 µM (inactive); in [18] it was > 100 µM (inactive). Further, the GI50 in assay [19] and in assay [20] was > 100 µM (inactive) each time.
Regarding `Nc1cccc2nsnc12`, the GI50 in assay [1] is > 100 µM (inactive); in [2], > 100 µM (inactive); in assay [3], > 100 µM (inactive); in assay [4], 53.8 µM (inactive); in assay [5], > 100 µM (inactive); in assay [6], > 100 µM (inactive). Also, the GI50 in [7] was > 100 µM (inactive); in assay [8], > 100 µM (inactive); in assay [9], > 100 µM (inactive); in assay [10], > 91.8 µM (inactive); in assay [11], > 100 µM (inactive); in assay [12], > 100 µM (inactive). Besides, the GI50 in assay [13] was > 100 µM (inactive); in assay [14] it was > 100 µM (inactive); in assay [15] it was greater than 76.7 µM; in assay [16], > 86.3 µM (inactive); in assay [17], 11.9 µM (inactive); in assay [18], > 94.8 µM (inactive). The GI50 in assay [19] is 4.2 µM (inactive); in assay [20], > 100 µM (inactive).
Take `O=C(/C=C/c1ccc(O)c(O)c1)NC(CO)C(=O)O` (stereo not given): the GI50 is > 100 µM (inactive) in [1]; > 100 µM (inactive) in assay [2]; 3.72 µM (inactive) in assay [3]; > 100 µM (inactive) in assay [4]; > 100 µM (inactive) in [5]; > 100 µM (inactive) in assay [6]. Moreover, the GI50 in assay [7] was > 100 µM (inactive); in [8], > 100 µM (inactive); in assay [9], > 100 µM (inactive); in assay [10] it was > 100 µM (inactive); in [11], > 100 µM (inactive); in assay [12], 0.612 µM (active). Moreover, the GI50 in assay [13] is > 100 µM (inactive); in [14], > 100 µM (inactive); in assay [15], 1.08 µM; in [16] it was > 100 µM (inactive); in [17] it was > 100 µM (inactive); in assay [18], > 100 µM (inactive). For the same compound, the GI50 in [19] and in assay [20] was > 100 µM (inactive) throughout.
As to `CSC1(C(=O)O)C2CCC3C2CCC31` (stereo not given), the GI50 in [1], in [2], in [3], in assay [4], in assay [5] and in assay [6] was > 100 µM (inactive) each time. The GI50 in [7], in assay [8], in assay [9], in assay [10], in assay [11] and in assay [12] was > 100 µM (inactive) each time. Also, the GI50 is > 100 µM (inactive) in assay [13]; > 100 µM (inactive) in [14]; greater than 100 µM in assay [15]; > 100 µM (inactive) in [16]; 52.6 µM (inactive) in assay [17]; > 100 µM (inactive) in assay [18]. Besides, the GI50 in [19] and in [20] was > 100 µM (inactive) in each case.

Source of the values: ChEMBL document CHEMBL1201862, “PubChem BioAssay data set” (2004).
